Assays:
Test in all cases: viability relative to DMSO control (fraction); higher = less drug effect (more viable cells)
Details in all cases: 48 h
[1] = tested on: primary AML patient cells (S025)
Method in brief: (§1)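 Viability was measured as CellTiter-Glo luminescence relative to the median of 16 inner DMSO wells. Primary mononuclear tumour cells, fresh or cryopreserved, were Ficoll-isolated from blood or bone marrow or taken from processed lymph node. They were seeded at 4 × 10^4 cells per well into 384-well plates holding pre-plated compounds at five concentrations, one well each, and kept in RPMI-1640 with penicillin/streptomycin, L-glutamine and human serum at 37 °C and 5% CO2 for 48 h.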

[2] = tested on: primary AML patient cells (S071)
Method in brief: as §1

[3] = tested on: primary B-PLL patient cells (S016)
Method in brief: as §1

[4] = tested on: primary CLL patient cells (S043)
Method in brief: as §1

[5] = tested on: primary AML patient cells (S002)
Method in brief: as §1

[6] = tested on: primary AML patient cells (S081)
Method in brief: as §1

[7] = tested on: primary AML patient cells (S085)
Method in brief: as §1

[8] = tested on: primary AML patient cells (S007)
Method in brief: as §1

[9] = tested on: primary AML patient cells (S060)
Method in brief: as §1

[10] = tested on: primary AML patient cells (S017)
Method in brief: as §1

[11] = tested on: primary AML patient cells (S019)
Method in brief: as §1

[12] = tested on: primary AML patient cells (S027)
Method in brief: as §1

[13] = tested on: primary AML patient cells (S021)
Method in brief: as §1

[14] = tested on: primary ALL patient cells (S088)
Method in brief: as §1

[15] = tested on: primary AML patient cells (S011)
Method in brief: as §1

[16] = tested on: primary BL patient cells (S005)
Method in brief: as §1

[17] = tested on: primary DLBCL patient cells (S049)
Method in brief: as §1

[18] = tested on: primary T-NHL patient cells (S058)
Method in brief: as §1

[19] = tested on: primary DLBCL patient cells (S076)
Method in brief: as §1

SMILES: CN1CC[C@H](c2c(O)cc(O)c3c(=O)cc(-c4ccccc4Cl)oc23)[C@H](O)C1 [Flavopiridol]
- viability ([1]; 0.0032 µM): 0.958
- viability ([1]; 0.016 µM): 0.861
- viability ([1]; 0.08 µM): 0.691
- viability ([1]; 0.4 µM): 0.13
- viability ([1]; 2 µM): 0.0473
- viability ([2]; 0.0032 µM): 0.914
- viability ([2]; 0.016 µM): 0.833
- viability ([2]; 0.08 µM): 0.54
- viability ([2]; 0.4 µM): 0.0926
- viability ([2]; 2 µM): 0.0942
- viability ([3]; 0.0032 µM): 0.932
- viability ([3]; 0.016 µM): 0.862
- viability ([3]; 0.08 µM): 0.959
- viability ([3]; 0.4 µM): 0.217
- viability ([3]; 2 µM): 0.0227
- viability ([4]; 0.0032 µM): 0.933
- viability ([4]; 0.016 µM): 1.02
- viability ([4]; 0.08 µM): 0.912
- viability ([4]; 0.4 µM): 0.265
- viability ([4]; 2 µM): 0.0335
- viability ([5]; 0.0032 µM): 1.02
- viability ([5]; 0.016 µM): 0.927
- viability ([5]; 0.08 µM): 0.69
- viability ([5]; 0.4 µM): 0.241
- viability ([5]; 2 µM): 0.244
- viability ([6]; 0.0032 µM): 1.01
- viability ([6]; 0.016 µM): 0.873
- viability ([6]; 0.08 µM): 0.766
- viability ([6]; 0.4 µM): 0.0954
- viability ([6]; 2 µM): 0.0215
- viability ([7]; 0.0032 µM): 0.86
- viability ([7]; 0.016 µM): 0.858
- viability ([7]; 0.08 µM): 0.651
- viability ([7]; 0.4 µM): 0.0968
- viability ([7]; 2 µM): 0.0387
- viability ([8]; 0.0032 µM): 0.945
- viability ([8]; 0.016 µM): 0.68
- viability ([8]; 0.08 µM): 0.624
- viability ([8]; 0.4 µM): 0.127
- viability ([8]; 2 µM): 0.0782
- viability ([9]; 0.0032 µM): 0.949
- viability ([9]; 0.016 µM): 0.937
- viability ([9]; 0.08 µM): 0.848
- viability ([9]; 0.4 µM): 0.127
- viability ([9]; 2 µM): 0.0228
- viability ([10]; 0.0032 µM): 1
- viability ([10]; 0.016 µM): 0.986
- viability ([10]; 0.08 µM): 0.96
- viability ([10]; 0.4 µM): 0.18
- viability ([10]; 2 µM): 0.0397
- viability ([11]; 0.0032 µM): 1.08
- viability ([11]; 0.016 µM): 0.769
- viability ([11]; 0.08 µM): 0.961
- viability ([11]; 0.4 µM): 0.198
- viability ([11]; 2 µM): 0.0784
- viability ([12]; 0.0032 µM): 1.04
- viability ([12]; 0.016 µM): 0.947
- viability ([12]; 0.08 µM): 0.842
- viability ([12]; 0.4 µM): 0.0906
- viability ([12]; 2 µM): 0.0365
- viability ([13]; 0.0032 µM): 0.974
- viability ([13]; 0.016 µM): 0.852
- viability ([13]; 0.08 µM): 0.676
- viability ([13]; 0.4 µM): 0.292
- viability ([13]; 2 µM): 0.124
- viability ([14]; 0.0032 µM): 0.955
- viability ([14]; 0.016 µM): 0.916
- viability ([14]; 0.08 µM): 1.08
- viability ([14]; 0.4 µM): 0.0921
- viability ([14]; 2 µM): 0.0295
- viability ([15]; 0.0032 µM): 0.859
- viability ([15]; 0.016 µM): 0.754
- viability ([15]; 0.08 µM): 0.715
- viability ([15]; 0.4 µM): 0.0633
- viability ([15]; 2 µM): 0.0225
- viability ([16]; 0.0032 µM): 0.794
- viability ([16]; 0.016 µM): 1.26
- viability ([16]; 0.08 µM): 0.644
- viability ([16]; 0.4 µM): 0.534
- viability ([16]; 2 µM): 0.983

SMILES: CC#CC(=O)N1CCC[C@H]1c1nc(-c2ccc(C(=O)Nc3ccccn3)cc2)c2c(N)nccn12 [Acalabrutinib (ACP-196)]
- viability ([1]; 0.008 µM): 1.06
- viability ([1]; 0.04 µM): 1.26
- viability ([1]; 0.2 µM): 1.04
- viability ([1]; 1 µM): 1.05
- viability ([1]; 5 µM): 1.05
- viability ([17]; 0.008 µM): 0.892
- viability ([17]; 0.04 µM): 0.758
- viability ([17]; 0.2 µM): 0.693
- viability ([17]; 1 µM): 0.74
- viability ([17]; 5 µM): 0.704
- viability ([2]; 0.008 µM): 1.06
- viability ([2]; 0.04 µM): 1.02
- viability ([2]; 0.2 µM): 1.01
- viability ([2]; 1 µM): 1.01
- viability ([2]; 5 µM): 0.994
- viability ([18]; 0.008 µM): 1.16
- viability ([18]; 0.04 µM): 1.21
- viability ([18]; 0.2 µM): 1.14
- viability ([18]; 1 µM): 1.25
- viability ([18]; 5 µM): 1.06
- viability ([3]; 0.008 µM): 0.748
- viability ([3]; 0.04 µM): 0.627
- viability ([3]; 0.2 µM): 0.601
- viability ([3]; 1 µM): 0.549
- viability ([3]; 5 µM): 0.6
- viability ([4]; 0.008 µM): 0.794
- viability ([4]; 0.04 µM): 0.768
- viability ([4]; 0.2 µM): 0.73
- viability ([4]; 1 µM): 0.701
- viability ([4]; 5 µM): 0.72
- viability ([5]; 0.008 µM): 0.98
- viability ([5]; 0.04 µM): 1.15
- viability ([5]; 0.2 µM): 1.03
- viability ([5]; 1 µM): 0.952
- viability ([5]; 5 µM): 1.04
- viability ([6]; 0.008 µM): 1.01
- viability ([6]; 0.04 µM): 1.05
- viability ([6]; 0.2 µM): 0.985
- viability ([6]; 1 µM): 1.02
- viability ([6]; 5 µM): 1.02
- viability ([7]; 0.008 µM): 1.05
- viability ([7]; 0.04 µM): 1.14
- viability ([7]; 0.2 µM): 1.01
- viability ([7]; 1 µM): 0.989
- viability ([7]; 5 µM): 1.02
- viability ([8]; 0.008 µM): 0.895
- viability ([8]; 0.04 µM): 0.945
- viability ([8]; 0.2 µM): 0.911
- viability ([8]; 1 µM): 1.07
- viability ([8]; 5 µM): 1.04
- viability ([9]; 0.008 µM): 1.08
- viability ([9]; 0.04 µM): 1.06
- viability ([9]; 0.2 µM): 1.04
- viability ([9]; 1 µM): 1.05
- viability ([9]; 5 µM): 1.05
- viability ([10]; 0.008 µM): 1.32
- viability ([10]; 0.04 µM): 1.1
- viability ([10]; 0.2 µM): 1.15
- viability ([10]; 1 µM): 1.36
- viability ([10]; 5 µM): 0.997
- viability ([11]; 0.008 µM): 1.09
- viability ([11]; 0.04 µM): 1.2
- viability ([11]; 0.2 µM): 1.08
- viability ([11]; 1 µM): 1.12
- viability ([11]; 5 µM): 1.06
- viability ([13]; 0.008 µM): 1.13
- viability ([13]; 0.04 µM): 1.05
- viability ([13]; 0.2 µM): 1.13
- viability ([13]; 1 µM): 1.1
- viability ([13]; 5 µM): 1.03
- viability ([14]; 0.008 µM): 1.04
- viability ([14]; 0.04 µM): 1.04
- viability ([14]; 0.2 µM): 1.04
- viability ([14]; 1 µM): 1.02
- viability ([14]; 5 µM): 1.16
- viability ([15]; 0.008 µM): 1.03
- viability ([15]; 0.04 µM): 1.02
- viability ([15]; 0.2 µM): 1.01
- viability ([15]; 1 µM): 0.864
- viability ([15]; 5 µM): 1.01
- viability ([16]; 0.008 µM): 1.07
- viability ([16]; 0.04 µM): 1.15
- viability ([16]; 0.2 µM): 1.05
- viability ([16]; 1 µM): 1.17
- viability ([16]; 5 µM): 1.08
- viability ([19]; 0.008 µM): 1.08
- viability ([19]; 0.04 µM): 1.14
- viability ([19]; 0.2 µM): 1.11
- viability ([19]; 1 µM): 1.12
- viability ([19]; 5 µM): 1.06
